# Results: ChEMBL document CHEMBL2417389, “Synthesis and optimization of novel (3S,5R)-5-(2,2-dimethyl-5-oxo-4-phenylpiperazin-1-yl)piperidine-3-carboxamides as orally active renin inhibitors” (Bioorg Med Chem, 2013)
# Where a chain is given by its changes, count along the chain named. Calls of active or inactive are those of the source. The rule behind the calls is not given here.
# Key:
# [1] = biological target: T1, Renin (Macaca fascicularis) (UniProt Q6DLS0); test: Ratio of compound IC50 to Aliskiren hemifumarate IC50 for cynomolgus monkey plasma renin
# T1 sequence (whole entry): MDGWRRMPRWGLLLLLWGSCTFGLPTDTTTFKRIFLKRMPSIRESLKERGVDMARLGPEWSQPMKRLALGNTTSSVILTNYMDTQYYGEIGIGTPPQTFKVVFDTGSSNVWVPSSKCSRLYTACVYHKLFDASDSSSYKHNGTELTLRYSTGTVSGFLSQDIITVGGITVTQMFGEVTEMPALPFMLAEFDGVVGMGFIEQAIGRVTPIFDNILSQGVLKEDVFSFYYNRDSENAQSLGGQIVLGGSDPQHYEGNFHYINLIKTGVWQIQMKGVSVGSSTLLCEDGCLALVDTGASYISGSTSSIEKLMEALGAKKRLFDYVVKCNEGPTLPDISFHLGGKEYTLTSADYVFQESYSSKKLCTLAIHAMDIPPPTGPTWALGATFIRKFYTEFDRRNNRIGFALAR
# [2] = AUC (0 to 24 hrs) in cynomolgus monkey at 3 mg/kg, po; assay type: ADME, organism-based, Macaca fascicularis; design: time < 24 hr, dose 3 mg/kg, route oral; settings: plasma
# Renin [3] = biological target: T2, Renin (Macaca fascicularis, UniProt Q6DLS0); test: Inhibition of cynomolgus monkey plasma renin assessed as angiotensin 1 level after 60 mins by competitive radioimmunoassay
# T2 sequence (Q6DLS0 whole entry): T1 sequence (whole entry)
# Renin [4] = biological target: T3, Renin (Homo sapiens, UniProt P00797); test: Inhibition of trypsin-activated human recombinant renin using (Arg-Glu(EDANS)-Ile-His-Pro-Phe-His-Leu-Val-Ile-His-Thr-Lys(DABCYL)-Arg) as substrate incubated for 10 mins prior to substrate addition measured after 90 mins by fluorescence assay
# T3 sequence (P00797 whole entry): T1 sequence (whole entry) with A68T, L214I, A235S
# Rattus norvegicus [5] = test: Antihypertensive activity in double transgenic rat assessed as reduction in mean arterial pressure at 30 mg/kg, po measured for 48 hrs post dose; assay type: functional, organism-based; design: dose 30 mg/kg; settings: Artery
# CYP3A4 = CYP3A4 (Homo sapiens, UniProt P08684); test: Inhibition of CYP3A4 (unknown origin) at 10 uM; assay type: ADME
# CYP2D6 = CYP2D6 (Homo sapiens, UniProt P10635); test: Inhibition of CYP2D6 (unknown origin) at 10 uM; assay type: ADME
# hERG (KCNH2) = hERG (KCNH2) (Homo sapiens, UniProt Q12809); test: Inhibition of human ERG channel at 30 uM by patch clamp technique
# Cynomolgus monkey [6] = test: Antihypertensive activity in cynomolgus monkey assessed as reduction in mean arterial pressure at 10 mg/kg, po measured for 24 hrs post dose; assay type: functional, organism-based; design: dose 10 mg/kg; settings: Macaca fascicularis, Artery
# [7] = AUC (0 to 24 hrs) in cynomolgus monkey at 10 mg/kg, po; assay type: ADME, organism-based, Macaca fascicularis; design: time < 24 hr, dose 10 mg/kg, route oral; settings: plasma
# [8] = Metabolic stability in monkey liver microsomes assessed as compound remaining after 30 mins; assay type: ADME, Macaca mulatta, Microsome; settings: rhesus monkey, read-out: Stability
# Rattus norvegicus [9] = test: Antihypertensive activity in double transgenic rat assessed as reduction in mean arterial pressure at 30 mg/kg, po after 24 hrs; assay type: functional, organism-based; design: dose 30 mg/kg; settings: Artery
# [10] = Plasma protein binding in human by ultracentrifugation method; assay type: ADME, cell-free; settings: read-out: PPB (converted)
# [11] = Plasma protein binding in monkey by ultracentrifugation method; assay type: ADME, cell-free, Macaca mulatta; settings: rhesus monkey, read-out: PPB (converted)
# [12] = Metabolic stability in rat liver microsomes assessed as compound remaining after 30 mins; assay type: ADME, Microsome; settings: read-out: Stability
# [13] = Half life in cynomolgus monkey at 10 mg/kg, po and 1 mg/kg, iv; assay type: ADME, organism-based, Macaca fascicularis; settings: in vivo
# [14] = Metabolic stability in human liver microsomes assessed as compound remaining after 30 mins; assay type: ADME, Microsome; settings: read-out: Stability
# [15] = Clearance in cynomolgus monkey at 10 mg/kg, and 1 mg/kg, iv; assay type: ADME, organism-based, Macaca fascicularis; settings: in vivo
# [16] = Volume of distribution at steady state in cynomolgus monkey at 10 mg/kg, po and 1 mg/kg, iv; assay type: ADME, organism-based, Macaca fascicularis; settings: in vivo, read-out: Vdss
# [17] = AUC (0 to 24 hrs) in Sprague-Dawley rat at 30 mg/kg, po; assay type: ADME, organism-based; design: time < 24 hr, dose 30 mg/kg, route oral; settings: plasma
# Salmonella typhimurium [18] = test: Genotoxicity in Salmonella typhimurium TA100 by Ames assay; assay type: toxicity, organism-based; settings: salmonella enterica subsp. enterica serovar typhimurium
# [19] = Lipophilicity, log D of the compound at pH 7.4; assay type: physicochemical; settings: buffer
# [20] = Clearance in Sprague-Dawley rat at 30 mg/kg, po and 1 mg/kg, iv; assay type: ADME, organism-based; settings: in vivo
# [21] = Plasma protein binding in rat by ultracentrifugation method; assay type: ADME, cell-free; settings: read-out: PPB (converted)
# [22] = Oral bioavailability in cynomolgus monkey at 10 mg/kg; assay type: ADME, organism-based, Macaca fascicularis; settings: in vivo
# [23] = Oral bioavailability in Sprague-Dawley rat at 30 mg/kg; assay type: ADME, organism-based; settings: in vivo
# [24] = Cmax in cynomolgus monkey at 10 mg/kg, po and 1 mg/kg, iv; assay type: ADME, organism-based, Macaca fascicularis; settings: in vivo
# [25] = Volume of distribution at steady state in Sprague-Dawley rat at 30 mg/kg, po and 1 mg/kg, iv; assay type: ADME, organism-based; settings: in vivo, read-out: Vdss
# Renin (Homo sapiens) = biological target: T4, Renin (Homo sapiens) (UniProt P00797); test: Ratio of compound IC50 to Aliskiren hemifumarate IC50 for human plasma renin
# T4 sequence (whole entry): T1 sequence (whole entry) with A68T, L214I, A235S
# Cavia porcellus [26] = species on record: Cavia porcellus; test: Cardiotoxicity in guinea pig assessed as action potential duration at 90% repolarization of right ventricular papillary muscle at 30 uM by glass microelectrode method relative to baseline; assay type: toxicity, Muscle tissue
# Renin [27] = biological target: T3, Renin; test: Inhibition of human plasma renin by competitive radioimmunoassay
# [28] = Cmax in Sprague-Dawley rat at 30 mg/kg, po and 1 mg/kg, iv; assay type: ADME, organism-based; settings: in vivo
# Cavia porcellus [29] = species on record: Cavia porcellus; test: Cardiotoxicity in guinea pig assessed as maximum dV/dt in right ventricular papillary muscle at 30 uM by glass microelectrode method relative to baseline; assay type: toxicity, Muscle tissue
# Cynomolgus monkey [30] = test: Antihypertensive activity in po dosed cynomolgus monkey assessed as reduction in mean arterial pressure administered 3 days post furosemide-challenge measured after 24 hrs; assay type: functional, organism-based; settings: Macaca fascicularis; Artery
# Salmonella typhimurium [31] = test: Genotoxicity in Salmonella typhimurium TA98 by Ames assay; assay type: toxicity, organism-based; settings: salmonella enterica subsp. enterica serovar typhimurium
# [32] = Half life in Sprague-Dawley rat at 30 mg/kg, po and 1 mg/kg, iv; assay type: ADME, organism-based; settings: in vivo
# [33] = AUC (0 to 24 hrs) in Sprague-Dawley rat at 10 mg/kg, po; assay type: ADME, organism-based; design: time < 24 hr, dose 10 mg/kg, route oral; settings: plasma
# Sequence of hERG (KCNH2) (Q12809 whole entry): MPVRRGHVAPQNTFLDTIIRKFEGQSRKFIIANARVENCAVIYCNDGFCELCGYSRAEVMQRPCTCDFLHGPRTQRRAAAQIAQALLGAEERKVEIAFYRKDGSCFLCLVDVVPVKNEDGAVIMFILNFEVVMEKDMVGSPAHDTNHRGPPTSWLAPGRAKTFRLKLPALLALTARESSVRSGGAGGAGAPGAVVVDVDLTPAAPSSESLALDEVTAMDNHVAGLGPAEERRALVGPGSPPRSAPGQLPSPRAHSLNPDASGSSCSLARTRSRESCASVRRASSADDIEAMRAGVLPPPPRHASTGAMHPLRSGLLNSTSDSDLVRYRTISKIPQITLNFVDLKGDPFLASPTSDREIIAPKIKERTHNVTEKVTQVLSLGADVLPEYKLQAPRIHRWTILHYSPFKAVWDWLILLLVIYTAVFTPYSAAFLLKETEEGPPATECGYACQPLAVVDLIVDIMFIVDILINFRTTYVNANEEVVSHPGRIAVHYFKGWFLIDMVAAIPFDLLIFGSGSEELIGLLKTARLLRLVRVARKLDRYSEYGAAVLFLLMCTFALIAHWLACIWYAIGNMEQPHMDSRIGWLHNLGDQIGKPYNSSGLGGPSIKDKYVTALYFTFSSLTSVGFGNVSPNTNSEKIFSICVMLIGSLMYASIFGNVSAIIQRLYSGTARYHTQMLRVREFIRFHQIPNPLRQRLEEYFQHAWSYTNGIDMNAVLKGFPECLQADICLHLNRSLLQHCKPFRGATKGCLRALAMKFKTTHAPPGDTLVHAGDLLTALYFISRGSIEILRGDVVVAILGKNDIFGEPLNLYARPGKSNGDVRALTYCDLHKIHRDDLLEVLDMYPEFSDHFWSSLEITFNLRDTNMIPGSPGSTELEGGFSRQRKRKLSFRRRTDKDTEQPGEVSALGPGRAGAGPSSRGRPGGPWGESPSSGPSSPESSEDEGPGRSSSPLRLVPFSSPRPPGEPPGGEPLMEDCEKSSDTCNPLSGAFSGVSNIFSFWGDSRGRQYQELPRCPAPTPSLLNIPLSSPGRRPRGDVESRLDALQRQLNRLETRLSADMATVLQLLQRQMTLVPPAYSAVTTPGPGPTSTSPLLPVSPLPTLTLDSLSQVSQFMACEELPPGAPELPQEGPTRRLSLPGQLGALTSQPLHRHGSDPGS
# Sequence of CYP2D6 (P10635 whole entry): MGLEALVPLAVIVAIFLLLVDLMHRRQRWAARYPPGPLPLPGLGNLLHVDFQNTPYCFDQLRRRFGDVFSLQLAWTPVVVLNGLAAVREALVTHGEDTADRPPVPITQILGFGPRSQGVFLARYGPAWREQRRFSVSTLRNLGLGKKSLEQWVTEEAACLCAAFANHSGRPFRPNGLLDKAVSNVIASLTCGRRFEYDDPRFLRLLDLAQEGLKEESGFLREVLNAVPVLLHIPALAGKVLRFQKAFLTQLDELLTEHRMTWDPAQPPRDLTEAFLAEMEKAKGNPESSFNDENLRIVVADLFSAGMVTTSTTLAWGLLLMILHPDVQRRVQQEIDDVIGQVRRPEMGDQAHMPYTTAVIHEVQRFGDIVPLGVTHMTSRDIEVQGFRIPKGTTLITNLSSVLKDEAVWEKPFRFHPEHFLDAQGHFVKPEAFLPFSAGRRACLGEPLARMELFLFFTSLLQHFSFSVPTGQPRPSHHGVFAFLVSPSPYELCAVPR
# Sequence of CYP3A4 (P08684 whole entry): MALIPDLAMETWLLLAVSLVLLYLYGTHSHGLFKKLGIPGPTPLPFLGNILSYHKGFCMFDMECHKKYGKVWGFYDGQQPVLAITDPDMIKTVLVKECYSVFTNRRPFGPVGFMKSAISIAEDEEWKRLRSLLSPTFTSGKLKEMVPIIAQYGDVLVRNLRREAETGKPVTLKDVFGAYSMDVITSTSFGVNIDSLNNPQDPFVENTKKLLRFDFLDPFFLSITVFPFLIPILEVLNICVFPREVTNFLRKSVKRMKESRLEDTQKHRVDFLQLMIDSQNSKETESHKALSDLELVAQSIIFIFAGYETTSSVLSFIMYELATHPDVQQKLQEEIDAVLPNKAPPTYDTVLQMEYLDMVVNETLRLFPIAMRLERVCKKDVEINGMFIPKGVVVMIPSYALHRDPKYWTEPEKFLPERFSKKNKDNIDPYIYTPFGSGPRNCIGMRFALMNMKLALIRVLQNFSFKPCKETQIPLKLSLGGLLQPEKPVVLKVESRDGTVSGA
smiles,measurement,setting,value
CC(C)CC(CC(C)C)NC(=O)[C@@H]1CNC[C@H](N2CC(=O)N(c3ccccc3Cl)CC2(C)C)C1,Ratio IC50,[1],2.8
CC(C)C[C@@H](NC(=O)[C@@H]1CNC[C@H](N2CC(=O)N(c3ccccc3Cl)CC2(C)C)C1)c1cccnc1,Ratio IC50,[1],0.9
CCOC[C@@H](CC(C)C)NC(=O)[C@@H]1CNC[C@H](N2CC(=O)N(c3ccccc3Cl)CC2(C)C)C1.O=C(O)/C=C/C(=O)O,Ratio IC50,[1],0.5
same,AUC(0-t) at 24 h,[2],0.06 µg·h/mL
CC[C@@H](NC(=O)[C@@H]1CNC[C@H](N2CC(=O)N(c3ccccc3Cl)CC2(C)C)C1)c1ccc(Cl)cc1,IC50,Renin [3],55 nM
same,Ratio IC50,[1],11
same,IC50,Renin [4],5.2 nM
CC(C)C[C@@H](NC(=O)[C@@H]1CNC[C@H](N2CC(=O)N(c3ccccc3Cl)CC2(C)C)C1)c1ccccn1,IC50,Renin [3],17 nM
same,Ratio IC50,[1],3.6
same,IC50,Renin [4],1.4 nM
Cc1ccc(F)cc1N1CC(C)(C)N([C@H]2CNC[C@@H](C(=O)N[C@H](CC(C)C)c3ccc(F)cn3)C2)CC1=O,IC50,Renin [3],16 nM
same,AUC,Rattus norvegicus [5],-606 mmHg.hr
same,inhibition at 10 µM,CYP3A4,44%
same,inhibition at 10 µM,CYP2D6,11%
same,Ratio IC50,[1],2.1
same,IC50,Renin [4],1.3 nM
same,inhibition at 30 µM,hERG (KCNH2),40%
CC(C)C[C@@H](NC(=O)[C@@H]1CNC[C@H](N2CC(=O)N(c3ccccc3Cl)CC2(C)C)C1)c1cncc(F)c1,IC50,Renin [3],6.9 nM
same,Ratio IC50,[1],0.8
same,IC50,Renin [4],1.7 nM
CC(C)C[C@@H](NC(=O)[C@@H]1CNC[C@H](N2CC(=O)N(c3ccccc3Cl)CC2(C)C)C1)c1ncco1,IC50,Renin [3],8.3 nM
same,Ratio IC50,[1],1.4
same,IC50,Renin [4],1.9 nM
CC[C@@H](NC(=O)[C@@H]1CNC[C@H](N2CC(=O)N(c3ccccc3Cl)CC2(C)C)C1)c1ccc(F)cc1,IC50,Renin [3],19 nM
same,Ratio IC50,[1],3.7
same,IC50,Renin [4],2.4 nM
CC[C@@H](NC(=O)[C@@H]1CNC[C@H](N2CC(=O)N(c3ccccc3Cl)CC2(C)C)C1)c1cccc(F)c1,IC50,Renin [3],14 nM
same,Ratio IC50,[1],2.8
same,IC50,Renin [4],1.8 nM
CC(C)C[C@@H](NC(=O)[C@@H]1CNC[C@H](N2CC(=O)N(c3ccccc3Cl)CC2(C)C)C1)c1ccc(F)cn1.O=C(O)/C=C/C(=O)O,IC50,Renin [3],9.7 nM
same,AUC,Rattus norvegicus [5],-535 mmHg.hr
same,AUC,Cynomolgus monkey [6],-194 mmHg.hr
same,inhibition at 10 µM,CYP3A4,22%
same,AUC(0-t) at 24 h,[7],2.58 µg·h/mL
same,inhibition at 10 µM,CYP2D6,8.3%
same,Ratio IC50,[1],2.1
same,IC50,Renin [4],1 nM
same,inhibition at 30 µM,hERG (KCNH2),27%
Cc1ccccc1N1CC(C)(C)N([C@H]2CNC[C@@H](C(=O)N[C@H](CC(C)C)c3ccc(F)cn3)C2)CC1=O.O=C(O)/C=C/C(=O)O,remaining at 0.5 h,[8],84%
same,Activity,Rattus norvegicus [9],Active
same,fraction unbound,[10],0.62
same,fraction unbound,[11],0.45
same,remaining at 0.5 h,[12],89%
same,half-life,[13],7.9 h
same,remaining at 0.5 h,[14],100%
same,IC50,Renin [3],7 nM
same,AUC,Rattus norvegicus [5],-581 mmHg.hr
same,AUC,Cynomolgus monkey [6],-267 mmHg.hr
same,inhibition at 10 µM,CYP3A4,30%
same,AUC(0-t) at 24 h,[7],3.19 µg·h/mL
same,clearance,[15],0.57 L/h/kg
same,inhibition at 10 µM,CYP2D6,1%
same,Vd,[16],5.4 L/kg
same,Ratio IC50,[1],0.9
same,AUC(0-t) at 24 h,[17],1.1 µg·h/mL
same,Activity,Salmonella typhimurium [18],Non-toxic
same,logD,[19],2
same,clearance,[20],4.8 L/h/kg
same,fraction unbound,[21],0.37
same,bioavailability,[22],25%
same,bioavailability,[23],20%
same,Cmax,[24],0.604 µg/mL
same,Vd,[25],11 L/kg
same,Ratio IC50,Renin (Homo sapiens),1.2
same,Activity,Cavia porcellus [26],-1%
same,IC50,Renin [27],3.6 nM
same,IC50,Renin [4],1.6 nM
same,Cmax,[28],0.204 µg/mL
same,inhibition at 30 µM,hERG (KCNH2),5.2%
same,Activity,Cavia porcellus [29],-11.6%
same,Activity,Cynomolgus monkey [30],Dose-dependent effect
same,Activity,Salmonella typhimurium [31],Non-toxic
same,half-life,[32],5.4 h
CC[C@@H](NC(=O)[C@@H]1CNC[C@H](N2CC(=O)N(c3ccccc3Cl)CC2(C)C)C1)c1ccccc1F,IC50,Renin [3],11 nM
same,Ratio IC50,[1],2.3
same,IC50,Renin [4],3.3 nM
CC(C)C[C@@H](NC(=O)[C@@H]1CNC[C@H](N2CC(=O)N(c3ccccc3Cl)CC2(C)C)C1)c1ccccc1,Ratio IC50,[1],1
CCC[C@@H](NC(=O)[C@@H]1CNC[C@H](N2CC(=O)N(c3ccccc3Cl)CC2(C)C)C1)c1ccccc1,Ratio IC50,[1],2
CC[C@@H](NC(=O)[C@@H]1CNC[C@H](N2CC(=O)N(c3ccccc3Cl)CC2(C)C)C1)c1cccc(Cl)c1,IC50,Renin [3],25 nM
same,Ratio IC50,[1],5
same,IC50,Renin [4],2.3 nM
CC(C)C[C@@H](NC(=O)[C@@H]1CNC[C@H](N2CC(=O)N(c3ccccc3Cl)CC2(C)C)C1)C(O)C(C)C (stereo partly drawn),Ratio IC50,[1],0.8
CC[C@@H](NC(=O)[C@@H]1CNC[C@H](N2CC(=O)N(c3ccccc3Cl)CC2(C)C)C1)c1ccccc1.O=C(O)/C=C/C(=O)O,Ratio IC50,[1],1.8
same,AUC(0-t) at 24 h,[33],1.5 µg·h/mL
same,AUC(0-t) at 24 h,[2],0.73 µg·h/mL
CC(C)C[C@@H](NC(=O)[C@@H]1CNC[C@H](N2CC(=O)N(c3ccccc3Cl)CC2(C)C)C1)c1ccno1,IC50,Renin [3],3.3 nM
same,Ratio IC50,[1],0.6
same,IC50,Renin [4],1.1 nM
